What all share (type): cell-based
In one test the test system is NFκB. In words: NFκB activity assay (commercial assay from Cell Culture Service GmbH), NFκB activated by TNF-alpha. The following applies: NFκB activated by adding TNF-alpha; FIG. 1; very low concentrations. An excerpt:
The nuclear factor kappa B (NFκB) is a master regulator of inflammation. The expression of many pro-inflammatory mediators (e.g. cytokines and chemokines) is controlled by NFκB. The inhibition of the activation of NFκB is therefore an important mechanism for minimizing inflammation processes. To measure the NFκB activity, a commercial assay from Cell Culture Service GmbH, Hamburg, was used. In this test, NFκB is activated by adding the pro-inflammatory mediator TNF-alpha. The addition of the alkylamidothiazoles according to the invention prevents the TNF-alpha effect in a dose-dependent manner.

For a further test, the system named is human dermal fibroblasts. In words: LPS-induced prostaglandin E2 formation in human dermal fibroblasts, ELISA of cell culture supernatant. To be noted: incubation for 24 hours with LPS and increasing concentrations, FIG. 2, compared with diclofenac. The protocol: (§1) In further experiments it was investigated whether the inhibition of the NFκB activation also actually reduces the subsequent secretion of pro-inflammatory mediators. By way of example, the results of two experiments are documented in the figures. By incubation of human dermal fibroblasts with lipopolysaccharides (LPS), the formation of the pro-inflammatory prostaglandin E2 was induced in the cells, and a specific ELISA was used to determine the concentration in the cell culture supernatant, following incubation for 24 hours with LPS and increasing concentrations of the substances according to the invention. […] In the next experiment, the release of interleukin 1β (IL-1β) from blood leukocytes following stimulation by LPS and simultaneous incubation (for 24 hours) with the substances according to the invention was measured. […] The anti-inflammatory activity level of the alkylamidothiazoles is thus that of recognized pharmacological standards, although higher concentrations of the substances according to the invention do have to be used.
(In general: ELISA stands for enzyme-linked immunosorbent assay.)

A further test deals with blood leukocytes. Nature of the test: release of interleukin 1β from blood leukocytes following stimulation by LPS. The following applies: FIG. 3. The procedure: as §1

On to `CC(C)C(=O)Nc1nc(-c2ccc(O)cc2O)cs1` [N-(4-(2,4-dihydroxyphenyl)thiazol-2-yl)isobutyramide], for which the “inhibition of the TNF-alpha-induced activation of NFκB” value in the test with NFκB is listed as “prevent the TNF-alpha-induced activation of NFκB”. The “release of PGE2” value in the test on human dermal fibroblasts is recorded as “very significantly reduces the release of PGE2 to a level which is comparable to the pharmacological standard diclofenac”. In addition, the “release of interleukin 1β (IL-1β)” value in the test on blood leukocytes (LPS stimulation and simultaneous incubation for 24 hours) is recorded as “very good anti-inflammatory effectiveness”. In addition, the “release of interleukin 1β (IL-1β), effectiveness relative to dexamethasone” value in the test on blood leukocytes (concentration of 16.67 μM, LPS, 24 hours) was “an effectiveness as for 500 ng of dexamethasone”.

The record behind these values is US10245252B2, “Use of alkylamidothiazoles in cosmetic or dermatological preparations for the prophylaxis or treatment of sensitive skin” (BEIERSDORF AG, priority 2013, dated 2019).
